± gives the expanded uncertainty stated by the source.
Legend:
[1] = xn = mol fraction of the nth substance listed; settings: 100 kPa, Liquid, x2 = 0; for viscosity: Falling or rolling sphere viscometry; for mass density: Vibrating tube method
[2] = 100 kPa, Liquid; for viscosity: Falling or rolling sphere viscometry; for mass density: Vibrating tube method

CCCCO [butan-1-ol] + C1CCC(C2CCCCC2)CC1
viscosity ([1]; 293.15 K): 2.941 ± 0.063 mPa·s
mass density ([1]; 293.15 K): 809.5 ± 0.82 kg/m3
viscosity ([1]; 298.15 K): 2.58 ± 0.055 mPa·s
mass density ([1]; 298.15 K): 805.7 ± 0.81 kg/m3
viscosity ([1]; 303.15 K): 2.274 ± 0.048 mPa·s
mass density ([1]; 303.15 K): 801.87 ± 0.81 kg/m3
viscosity ([1]; 308.15 K): 2.012 ± 0.043 mPa·s
mass density ([1]; 308.15 K): 798 ± 0.81 kg/m3
viscosity ([1]; 313.15 K): 1.787 ± 0.038 mPa·s
mass density ([1]; 313.15 K): 794.1 ± 0.8 kg/m3
viscosity ([1]; 318.15 K): 1.593 ± 0.034 mPa·s
mass density ([1]; 318.15 K): 790.15 ± 0.8 kg/m3
viscosity ([1]; 323.15 K): 1.426 ± 0.03 mPa·s
mass density ([1]; 323.15 K): 786.16 ± 0.8 kg/m3
viscosity ([1]; 328.15 K): 1.28 ± 0.027 mPa·s
mass density ([1]; 328.15 K): 782.12 ± 0.79 kg/m3
viscosity ([1]; 333.15 K): 1.152 ± 0.025 mPa·s
mass density ([1]; 333.15 K): 778.01 ± 0.79 kg/m3

CCCCO [butan-1-ol] + CCCCCCCCCCCC
viscosity ([1]; 293.15 K): 2.941 ± 0.063 mPa·s
mass density ([1]; 293.15 K): 809.5 ± 0.82 kg/m3
viscosity ([1]; 298.15 K): 2.58 ± 0.055 mPa·s
mass density ([1]; 298.15 K): 805.7 ± 0.81 kg/m3
viscosity ([1]; 303.15 K): 2.274 ± 0.048 mPa·s
mass density ([1]; 303.15 K): 801.87 ± 0.81 kg/m3
viscosity ([1]; 308.15 K): 2.012 ± 0.043 mPa·s
mass density ([1]; 308.15 K): 798 ± 0.81 kg/m3
viscosity ([1]; 313.15 K): 1.787 ± 0.038 mPa·s
mass density ([1]; 313.15 K): 794.1 ± 0.8 kg/m3
viscosity ([1]; 318.15 K): 1.593 ± 0.034 mPa·s
mass density ([1]; 318.15 K): 790.15 ± 0.8 kg/m3
viscosity ([1]; 323.15 K): 1.426 ± 0.03 mPa·s
mass density ([1]; 323.15 K): 786.16 ± 0.8 kg/m3
viscosity ([1]; 328.15 K): 1.28 ± 0.027 mPa·s
mass density ([1]; 328.15 K): 782.12 ± 0.79 kg/m3
viscosity ([1]; 333.15 K): 1.152 ± 0.025 mPa·s
mass density ([1]; 333.15 K): 778.01 ± 0.79 kg/m3

CCCCO [butan-1-ol]
viscosity ([2]; 293.15 K): 2.941 ± 0.063 mPa·s
mass density ([2]; 293.15 K): 809.5 ± 0.82 kg/m3
viscosity ([2]; 298.15 K): 2.58 ± 0.055 mPa·s
mass density ([2]; 298.15 K): 805.7 ± 0.81 kg/m3
viscosity ([2]; 303.15 K): 2.274 ± 0.048 mPa·s
mass density ([2]; 303.15 K): 801.87 ± 0.81 kg/m3
viscosity ([2]; 308.15 K): 2.012 ± 0.043 mPa·s
mass density ([2]; 308.15 K): 798 ± 0.81 kg/m3
viscosity ([2]; 313.15 K): 1.787 ± 0.038 mPa·s
mass density ([2]; 313.15 K): 794.1 ± 0.8 kg/m3
viscosity ([2]; 318.15 K): 1.593 ± 0.034 mPa·s
mass density ([2]; 318.15 K): 790.15 ± 0.8 kg/m3
viscosity ([2]; 323.15 K): 1.426 ± 0.03 mPa·s
mass density ([2]; 323.15 K): 786.16 ± 0.8 kg/m3
viscosity ([2]; 328.15 K): 1.28 ± 0.027 mPa·s
mass density ([2]; 328.15 K): 782.12 ± 0.79 kg/m3
viscosity ([2]; 333.15 K): 1.152 ± 0.025 mPa·s
mass density ([2]; 333.15 K): 778.01 ± 0.79 kg/m3
